We go through 11 compounds from paper PMC8470973, “Multi-Target Actions of Acridones from Atalantia monophylla towards Alzheimer’s Pathogenesis and Their Pharmacokinetic Properties” (Pharmaceuticals, 2021).

As usually defined, the IC50 is the concentration that gives 50% inhibition.

Series [1] in a line: ABTS radical scavenging assay. To be noted: read-out: ABTS Scavenging Activity IC50; mean ± SD, triplicates; 10 to 100 µM tested.
Procedure: In the present study, the antioxidant activity of the 10 acridones was evaluated by ABTS radical scavenging assay and trolox was used as the reference compound.
The antioxidant activity was determined by the decolonization of the radical cation of 2,2′-azinobis-(3-ethylbenzothiazoline-6-sulfonic acid) (ABTS^•+) [60]. […] Prior to the assay, the ABTS^•+ solution was diluted to get an absorbance of 0.70 ± 0.02 at 700 nm with ethanol. Trolox was used as an antioxidant standard. All test and standard compounds were dissolved in ethanol. Fifty microliters of each test compound was added to 100 µL of diluted ABTS^•+ solution to obtain final concentrations from 10 to 100 µM. […] Experiments were performed in independent triplicates.
Another series has as its target Aβ1-42 (Homo sapiens, UniProt P05067). In words: Inhibition of self-mediated Aβ1-42 aggregation (thioflavin T assay).
The target in series [2] is T1, AChE from Electrophorus electricus (type VI-S) (Electrophorus electricus, UniProt O42275).
T1 construct: purchased type VI-S
T1 sequence (O42275 24-633): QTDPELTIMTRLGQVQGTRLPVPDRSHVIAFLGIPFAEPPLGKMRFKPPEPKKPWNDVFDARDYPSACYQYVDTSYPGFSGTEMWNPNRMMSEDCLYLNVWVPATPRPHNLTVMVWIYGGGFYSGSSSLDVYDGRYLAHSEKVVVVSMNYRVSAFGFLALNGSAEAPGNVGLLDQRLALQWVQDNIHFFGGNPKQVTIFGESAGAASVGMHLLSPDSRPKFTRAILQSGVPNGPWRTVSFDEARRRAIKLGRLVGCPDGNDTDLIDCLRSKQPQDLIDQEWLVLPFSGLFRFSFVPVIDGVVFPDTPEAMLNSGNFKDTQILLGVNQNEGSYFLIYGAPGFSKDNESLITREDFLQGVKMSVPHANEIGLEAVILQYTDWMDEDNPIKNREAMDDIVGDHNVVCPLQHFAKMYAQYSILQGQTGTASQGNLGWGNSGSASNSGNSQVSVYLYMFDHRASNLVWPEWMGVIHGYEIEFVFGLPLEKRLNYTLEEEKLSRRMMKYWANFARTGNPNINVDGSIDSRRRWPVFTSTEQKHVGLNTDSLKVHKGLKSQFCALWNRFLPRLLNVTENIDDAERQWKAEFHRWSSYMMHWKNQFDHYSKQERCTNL
In words: biochemical. To be noted: Ellman's method, pH 7.4, acetylthiocholine 1 mM; mean ± SD; read-out: Anti-AChE IC50. Here is the method:
It is well-known that the cholinergic system plays a vital role in the regulation of the learning, cognitive and memory processes. […] In the present study, all acridones were tested for their inhibition of AChE according to the method of Ellman and co-workers, using tacrine as a reference compound. […] Acridone consists of two benzene rings fused together with a keto group and a nitrogen atom at positions 9 and 10, respectively, resulting in a planar structure.
AChE activity was evaluated and modified from Ellman’s method. All test compounds were prepared as stock solution in ethanol. […] Experiments were performed in triplicates.

Series [3] relates to SH-SY5Y cells. In words: Neuroprotection against H2O2-induced cell death in SH-SY5Y cells. It counts as cell-based, Human. To be noted: 10 µM pre-treatment 24 h, then 250 µM H2O2 for 2 h. As for the experimental part: (§1) To examine the neuroprotective effects of acridones against H2O2, SH-SY5Y cells were pre-treated with 10 µM citrusinine II and glycosparvarine for 24 h before exposure to 250 µM H2O2 for 2 h. […] The cytotoxic effects of H2O2 were attenuated by pre-treating cells with citrusinine II and glycosparvarine (Figure 8). For evaluation of the neuroprotective effects of acridones against Aβ1-42 toxicity, SH-SY5Y cells were pre-treated with 10 µM citrusinine II and glycosparvarine for 24 h, followed by 25 µM Aβ1-42 for 24 h. Cell viability was determined by MTT assay.
(§2) Human neuroblastoma cell line SH-SY5Y cells were cultured in Dulbecco’s modified Eagle medium (DMEM)/Ham’s F-12 medium supplemented with 10% fetal bovine serum (FBS), 100 U/mL penicillin and 100 µg/mL streptomycin. Cells were routinely cultured in 75 cm^2 cell culture flasks at 37 °C in 5% CO2. After that, cells were seeded at a density 5 × 10^5 cells/mL in 96-well plates and incubated for an additional 48 h before evaluation.
For evaluation of the neuroprotective effect against H2O2 induced cell damage, cells were pretreated with test compounds or a reference standard at the concentration of 10 μM for 24 h. After treatment, the medium was removed, and cells were washed with phosphate buffer saline to remove unabsorbed test compounds. […] The cell viability was determined by MTT assay.

For series [4], the system named is SH-SY5Y neuroblastoma cells. In words: Cytotoxicity by MTT assay in SH-SY5Y cells. It counts as cell-based. To be noted: 0.1–10 µM, 24 h incubation. As for the experimental part: […]. […] […]. Thus, the acridones were investigated for neuroprotective effects against H2O2 and Aβ1-42 induced toxicity in human SH-SY5Y neuroblastoma cells at the non-toxic concentration of 10 µM.
as §2
For the investigation of the toxicity effect of test compounds, cells were treated with test compounds at final concentrations of 0.1, 1, 10, 100 μM for 24 h. […] Then, culture media was replaced with a solution of MTT (0.5 mg/mL) at 37 °C for 2 h to determine survival of cells. Live cells containing formazan crystals were solubilized in 100 µL of DMSO. The absorption was measured by UV spectrometer ([…] Accureader M965) at 570 nm. The percentages of cell viability were calculated in relation to untreated cells.
Background: Tetrazolium assays rely on reduction of a dye to a coloured formazan, in cell work by metabolically active cells.

The subject of series [5] is SH-SY5Y cells. In words: Neuroprotection against Aβ1-42-induced cell death in SH-SY5Y cells. The note with it: 10 µM pre-treatment 24 h, then 25 µM Aβ1-42 for 24 h. It counts as cell-based, Human. Here is the method: as §1, §2
For neuroprotection against Aβ1–42 toxicity, the Aβ1–42 preparation was modified from Thiratmatrakul et al.. Briefly, lyophilized Aβ1–42 was reconstituted in sterile water and kept at –80 °C until use. […] Twenty-four hours later, cell viability was determined by the MTT colorimetric method. […]

Sequence of Aβ1-42 (P05067 672-713 limits assumed): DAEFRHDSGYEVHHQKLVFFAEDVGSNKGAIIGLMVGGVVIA

As for `Cc1c(C)c2c(c(C)c1O)CCC(C)(C(=O)O)O2` (stereo not drawn) [Trolox, reference compound], the IC50 in series [1] is 58.9 ± 2.38 µM.
For `COc1cc(O)c2c(=O)c3cccc(O)c3n(C)c2c1OC` [Citrusinine I, citrusinine I], the IC50 against Aβ1-42 turned out to be 7.05 ± 1.45 µM; in series [2], 35.4 ± 1.61 µM; in series [1] it was 33.77 ± 0.29 µM.
For `COc1c(O)c(OC)c2c(c1O)c(=O)c1cccc(O)c1n2C` [Citruscridone, citruscridone], in that order: 8.61 ± 0.75 µM, 47 ± 2.4 µM and 31.7 ± 0.56 µM.
The corresponding values for `CC(C)=CCc1c2c(c3c(c1O)c(=O)c1cccc(O)c1n3C)C=CC(C)(C)O2` [N-methylatalaphyllinine] are 6.14 ± 3.85 µM, 54 ± 2.03 µM and 57.5 ± 3.52 µM.
As to `COc1c(O)cc2c(c1O)c(=O)c1cccc(O)c1n2C` [Glycosparvarine, glycosparvarine], the IC50 against Aβ1-42 was found to be 6.58 ± 2.03 µM; in series [2] it was 18.6 ± 2.77 µM; in series [1] it was 22.9 ± 2.24 µM. In addition, in the series on SH-SY5Y cells [3], the “Neuroprotective effect against H2O2-induced loss of cell viability (MTT)” value is reported as “attenuated”. In addition, the “Effect on viability of SH-SY5Y cells (MTT)” value in series [4] was “no effect on viability”.
For the compound `COc1c(O)cc(O)c2c(=O)c3cccc(O)c3n(C)c12` [Citrusinine II, citrusinine II], the IC50 amounted to 6.17 ± 2.29 µM on Aβ1-42, 42.6 ± 4.81 µM in series [2] and 20 ± 3.89 µM in series [1]. The “Neuroprotective effect against Aβ1-42 toxicity (MTT)” value in the series with SH-SY5Y cells [5] was “significantly protected”. Moreover, the “Neuroprotective effect against H2O2-induced loss of cell viability (MTT)” value in the series with SH-SY5Y cells [3] is listed as “attenuated”. In series [4], the “Effect on viability of SH-SY5Y cells (MTT)” value is reported as “no effect on viability”.
As to `CC(C)=CCc1c2c(c(O)c3c(=O)c4cccc(O)c4n(C)c13)C=CC(C)(C)O2` [N-methylcycloatalaphylline A], the IC50 on Aβ1-42 was 5.84 ± 0.99 µM; in series [2], 66.6 ± 2.51 µM; in series [1], 79.6 ± 3.26 µM.
The corresponding values for `CC(C)=CCc1c(O)c(CC=C(C)C)c2[nH]c3c(O)cccc3c(=O)c2c1O` [Atalaphylline, atalaphylline] are 6.58 ± 1.3 µM, 58.3 ± 2.99 µM and 46.2 ± 2.31 µM.
In the case of `COc1cc2[nH]c3c(O)cccc3c(=O)c2c(O)c1CC=C(C)C` [Buxifoliadine C, buxifoliadine C], the IC50 on Aβ1-42 was determined as 8.81 ± 3.62 µM; in series [2] it was 50.8 ± 3.74 µM; in series [1], 21.8 ± 2.71 µM.
For `CC(C)=CCc1c(O)c(CC=C(C)C)c2c(c1O)c(=O)c1cccc(O)c1n2C` [N-methylatalaphylline], in that order: 7.32 ± 0.09 µM, 49.1 ± 2.75 µM and 50.7 ± 1.02 µM.
On to `CC(C)=CCc1c2c(c3[nH]c4c(O)cccc4c(=O)c3c1O)C=CC(C)(C)O2` [Atalaphyllinine, atalaphyllinine], for which the IC50 on Aβ1-42 came to 4.79 ± 0.67 µM; in series [2], 60.8 ± 4.62 µM; in series [1], 53 ± 1.83 µM.
